# Experimental data taken from US20020052295A1, “Diacyl derivatives of propylene diamine having herbicidal activity” (priority 1999, published 2002).
# Tests used:
# PANMI [1] = assay: Pre-emergence herbicidal activity on PANMI (wild proso millet); format: in vivo, Panicum miliaceum; conditions: lowest tested rate giving 80% or greater inhibition, approx. 14 days after planting and treating, greenhouse
# Method in brief: (§1)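 In this greenhouse test, compound in acetone/water (50:50) was put on the soil surface directly after seeds were sown and covered. Plants received overhead irrigation and were held at 30/21 °C day/night. About 14 days on, inhibition relative to untreated controls gave GR80.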
# CONAR [2] = assay: Post-emergence herbicidal activity on CONAR (field bindweed); format: in vivo, Convolvulus arvensis; conditions: post-emergence spray; lowest tested rate with 80% or greater inhibition; about 14 days after treatment
# From the text: (§2) All such uses, and the biological activity enabling such uses, are embraced by the term “herbicidal” herein. Tables 15 and 16 summarize results of tests conducted as described below to determine the pre-emergence herbicidal activity, in the form of a GR80 value, of illustrative compounds of this invention. […] Where herbicidal activity was evident but 80% inhibition was not achieved at the highest rate tested (typically 1000 g/ha), an asterisk (*) is shown in the following tables. Herbicidal activity evident in the form of symptoms of phytotoxicity, in the absence of at least 80% inhibition at any rate, is indicated in the tables by “phyto”. A blank cell in the following tables indicates no herbicidal or phytotoxic response at any rate tested.
# (§3) In another set of tests, the post-emergence activity of compounds of this invention was evaluated on the cool season species listed above. The following procedure was used.
# (§4) A pre-prepared topsoil mixture (described above) was placed in a pot and compacted to a depth of 1.0 to 1.25 cm from the top of the pot. Seeds of each of several monocotyledonous and dicotyledonous annual plant species were placed on top of the soil The seeds were covered with a mixture of 50% topsoil and 50% Rediearth™ in sufficient quantity to level-fill the pots. The pots were then placed on a greenhouse bench and subirrigated as needed until plants growing from the seeds had emerged and reached a suitable growth stage for post-emergence treatment, typically 9 to 14 days after planting.
# (§5) A known amount of each test compound dissolved or suspended in an appropriate organic solvent was diluted with a 50:50 mix of acetone and water and applied to the plants by spraying with a standard spray nozzle in a spray volume of 3,100 l/ha at a spray pressure of […] (30 psig). Control plants were not sprayed.
# (§6) After treatment the plants were placed in a greenhouse with a 30/21° C. day/night temperature regime and were subsequently watered as needed for growth. Approximately 14 days after treatment, the plants were observed and herbicidal efficacy recorded as percent inhibition by comparison with control plants.
# SORVU [3] = assay: Post-emergence herbicidal activity on SORVU (shattercane); format: in vivo, Sorghum vulgare; conditions: post-emergence spray; lowest tested rate with 80% or greater inhibition; about 14 days after treatment
# From the text: as §2, §3, §4, §5, §6
# DATST [4] = assay: Post-emergence herbicidal activity on DATST (jimsonweed); format: in vivo, Datura stramonium; conditions: post-emergence spray; lowest tested rate with 80% or greater inhibition; about 14 days after treatment
# From the text: as §2, §3, §4, §5, §6
# SETFA [5] = assay: Pre-emergence herbicidal activity on SETFA (giant foxtail); format: in vivo, Setaria faberi; conditions: lowest tested rate giving 80% or greater inhibition, approx. 14 days after planting and treating, greenhouse
# Method in brief: as §1
# PANDI [6] = assay: Post-emergence herbicidal activity on PANDI (fall panicum); format: in vivo, Panicum dichotomiflorum; conditions: post-emergence spray; lowest tested rate with 80% or greater inhibition; about 14 days after treatment
# From the text: as §2, §3, §4, §5, §6
# DIGSA [7] = assay: Post-emergence herbicidal activity on DIGSA (large crabgrass); format: in vivo, Digitaria sanguinalis; conditions: post-emergence spray; lowest tested rate with 80% or greater inhibition; about 14 days after treatment
# POROL [8] = assay: Post-emergence herbicidal activity on POROL (common purslane; table head prints PORAL); format: in vivo, Portulaca oleracea; conditions: post-emergence spray; lowest tested rate with 80% or greater inhibition; about 14 days after treatment
# From the text: as §2, §3, §4, §5, §6
# PANMI [9] = assay: Post-emergence herbicidal activity on PANMI (wild proso millet); format: in vivo, Panicum miliaceum; conditions: post-emergence spray; lowest tested rate with 80% or greater inhibition; about 14 days after treatment
# DIGSA [10] = assay: Pre-emergence herbicidal activity on DIGSA (large crabgrass); format: in vivo, Digitaria sanguinalis; conditions: lowest tested rate giving 80% or greater inhibition, approx. 14 days after planting and treating, greenhouse
# Method in brief: as §1
# SOLNI [11] = assay: Post-emergence herbicidal activity on SOLNI (black nightshade); format: in vivo, Solanum nigrum; conditions: post-emergence spray; lowest tested rate with 80% or greater inhibition; about 14 days after treatment
# From the text: as §2, §3, §4, §5, §6
# SETFA [12] = assay: Post-emergence herbicidal activity on SETFA (giant foxtail); format: in vivo, Setaria faberi; conditions: post-emergence spray; lowest tested rate with 80% or greater inhibition; about 14 days after treatment
# From the text: as §2, §3, §4, §5, §6
# ECHCG [13] = assay: Post-emergence herbicidal activity on ECHCG (barnyardgrass); format: in vivo, Echinochloa crus-galli; conditions: post-emergence spray; lowest tested rate with 80% or greater inhibition; about 14 days after treatment
# From the text: as §2, §3, §4, §5, §6
# BRAPP [14] = assay: Post-emergence herbicidal activity on BRAPP (broadleaf signalgrass); format: in vivo, Brachiaria platyphylla; conditions: post-emergence spray; lowest tested rate with 80% or greater inhibition; about 14 days after treatment
# From the text: as §2, §3, §4, §5, §6
# CHEAL [15] = assay: Post-emergence herbicidal activity on CHEAL (common lambsquarters); format: in vivo, Chenopodium album; conditions: post-emergence spray; lowest tested rate with 80% or greater inhibition; about 14 days after treatment
# From the text: as §2, §3, §4, §5, §6
# ABUTH [16] = assay: Post-emergence herbicidal activity on ABUTH (velvetleaf); format: in vivo, Abutilon theophrasti; conditions: post-emergence spray; lowest tested rate with 80% or greater inhibition; about 14 days after treatment
# From the text: as §2, §3, §4, §5, §6
# BRAPP [17] = assay: Pre-emergence herbicidal activity on BRAPP (broadleaf signalgrass); format: in vivo, Brachiaria platyphylla; conditions: lowest tested rate giving 80% or greater inhibition, approx. 14 days after planting and treating, greenhouse
# Method in brief: as §1
# CIRAR = assay: Pre-emergence herbicidal activity on CIRAR (canada thistle, seedling); format: in vivo, Cirsium arvense; conditions: lowest tested rate giving 80% or greater inhibition, approx. 14 days after planting and treating, greenhouse
# Method in brief: as §1
# SORHA [18] = assay: Post-emergence herbicidal activity on SORHA (johnsongrass, seedling); format: in vivo, Sorghum halepense; conditions: post-emergence spray; lowest tested rate with 80% or greater inhibition; about 14 days after treatment
# From the text: as §2, §3, §4, §5, §6
# SOLNI [19] = assay: Pre-emergence herbicidal activity on SOLNI (black nightshade); format: in vivo, Solanum nigrum; conditions: lowest tested rate giving 80% or greater inhibition, approx. 14 days after planting and treating, greenhouse
# Method in brief: as §1
# AMARE [20] = assay: Post-emergence herbicidal activity on AMARE (redroot pigweed); format: in vivo, Amaranthus retroflexus; conditions: post-emergence spray; lowest tested rate with 80% or greater inhibition; about 14 days after treatment
# From the text: as §2, §3, §4, §5, §6
# ECHCG [21] = assay: Pre-emergence herbicidal activity on ECHCG (barnyardgrass); format: in vivo, Echinochloa crus-galli; conditions: lowest tested rate giving 80% or greater inhibition, approx. 14 days after planting and treating, greenhouse
# Method in brief: as §1
# CHEAL [22] = assay: Pre-emergence herbicidal activity on CHEAL (common lambsquarters); format: in vivo, Chenopodium album; conditions: lowest tested rate giving 80% or greater inhibition, approx. 14 days after planting and treating, greenhouse
# Method in brief: as §1
# POROL [23] = assay: Pre-emergence herbicidal activity on POROL (common purslane); format: in vivo, Portulaca oleracea; conditions: lowest tested rate giving 80% or greater inhibition, approx. 14 days after planting and treating, greenhouse
# Method in brief: as §1
# CONAR [24] = assay: Pre-emergence herbicidal activity on CONAR (field bindweed); format: in vivo, Convolvulus arvensis; conditions: lowest tested rate giving 80% or greater inhibition, approx. 14 days after planting and treating, greenhouse
# Method in brief: as §1
# ABUTH [25] = assay: Pre-emergence herbicidal activity on ABUTH (velvetleaf); format: in vivo, Abutilon theophrasti; conditions: lowest tested rate giving 80% or greater inhibition, approx. 14 days after planting and treating, greenhouse
# Method in brief: as §1
# SORVU [26] = assay: Pre-emergence herbicidal activity on SORVU (shattercane); format: in vivo, Sorghum vulgare; conditions: lowest tested rate giving 80% or greater inhibition, approx. 14 days after planting and treating, greenhouse
# Method in brief: as §1
# DATST [27] = assay: Pre-emergence herbicidal activity on DATST (jimsonweed); format: in vivo, Datura stramonium; conditions: lowest tested rate giving 80% or greater inhibition, approx. 14 days after planting and treating, greenhouse
# Method in brief: as §1
# SORHA [28] = assay: Pre-emergence herbicidal activity on SORHA (johnsongrass, seedling); format: in vivo, Sorghum halepense; conditions: lowest tested rate giving 80% or greater inhibition, approx. 14 days after planting and treating, greenhouse
# Method in brief: as §1
# PANDI [29] = assay: Pre-emergence herbicidal activity on PANDI (fall panicum); format: in vivo, Panicum dichotomiflorum; conditions: lowest tested rate giving 80% or greater inhibition, approx. 14 days after planting and treating, greenhouse
# Method in brief: as §1
# AMARE [30] = assay: Pre-emergence herbicidal activity on AMARE (redroot pigweed); format: in vivo, Amaranthus retroflexus; conditions: lowest tested rate giving 80% or greater inhibition, approx. 14 days after planting and treating, greenhouse
# Method in brief: as §1
SMILES,Pre-emergence activity (GR80) on PANMI (PANMI [1]),Post-emergence activity (GR80) CONAR (CONAR [2]),Post-emergence activity (GR80) SORVU (SORVU [3]),Post-emergence activity (GR80) DATST (DATST [4]),Pre-emergence activity (GR80) on SETFA (SETFA [5]),Post-emergence activity (GR80) PANDI (PANDI [6]),Post-emergence activity (GR80) DIGSA (DIGSA [7]),Post-emergence activity (GR80) PORAL (POROL [8]),Post-emergence activity (GR80) PANMI (PANMI [9]),Pre-emergence activity (GR80) on DIGSA (DIGSA [10]) [g/ha],Post-emergence activity (GR80) SOLNI (SOLNI [11]),Post-emergence activity (GR80) SETFA (SETFA [12]),Post-emergence activity (GR80) ECHCG (ECHCG [13]),Post-emergence activity (GR80) BRAPP (BRAPP [14]),Post-emergence activity (GR80) CHEAL (CHEAL [15]),Post-emergence activity (GR80) ABUTH (ABUTH [16]),Pre-emergence activity (GR80) on BRAPP (BRAPP [17]),Post-emergence activity (GR80) SORHA (SORHA [18]),Pre-emergence activity (GR80) on SOLNI (SOLNI [19]),Post-emergence activity (GR80) AMARE (AMARE [20]),other results
C=C(C)CSc1ccccc1C(=O)NC(C)CNC(=O)c1cccc(C(F)(F)F)c1 (stereo not drawn) [Example 124],phyto,phyto,[empty],phyto,phyto,[empty],[empty],phyto,[empty],1000,phyto,[empty],[empty],[empty],[empty],phyto,phyto,[empty],phyto,phyto,Pre-emergence activity (GR80) on CIRAR (CIRAR): 1000 g/ha; Pre-emergence activity (GR80) on ECHCG (ECHCG [21]): phyto
"CCSc1ncccc1C(=O)NC(C)CNC(=O)c1cccc(C(F)(F)F)c1 (stereo not drawn) [Example 243, 2-ethylthio-N-[1-methyl-2-(3-trifluoromethyl)phenylcarbonylamino]ethyl-3-pyridinecarboxamide]",750 g/ha,"* (Where herbicidal activity was evident but 80% inhibition was not achieved at the highest rate tested (typically 1000 g/ha), an asterisk (*) is shown)",[empty],750 g/ha,500 g/ha,[empty],[empty],"* (Where herbicidal activity was evident but 80% inhibition was not achieved at the highest rate tested (typically 1000 g/ha), an asterisk (*) is shown)",[empty],500,phyto,[empty],[empty],[empty],phyto,phyto,500 g/ha,[empty],250 g/ha,phyto,"Pre-emergence activity (GR80) on CHEAL (CHEAL [22]): 250 g/ha; Pre-emergence activity (GR80) on PORAL (POROL [23]): 250 g/ha; Pre-emergence activity (GR80) on CONAR (CONAR [24]): 250 g/ha; Pre-emergence activity (GR80) on ABUTH (ABUTH [25]): 500 g/ha; Pre-emergence activity (GR80) on SORVU (SORVU [26]): phyto; Pre-emergence activity (GR80) on DATST (DATST [27]): 250 g/ha; Pre-emergence activity (GR80) on SORHA (SORHA [28]): * (Where herbicidal activity was evident but 80% inhibition was not achieved at the highest rate tested (typically 1000 g/ha), an asterisk (*) is shown); Pre-emergence activity (GR80) on CIRAR (CIRAR): 250 g/ha; Pre-emergence activity (GR80) on PANDI (PANDI [29]): 500 g/ha; Pre-emergence activity (GR80) on AMARE (AMARE [30]): 750 g/ha; Pre-emergence activity (GR80) on ECHCG (ECHCG [21]): 1000 g/ha"
CC(CNC(=O)c1cccc(C(F)(F)F)c1)NC(=O)c1ccc(C(F)(F)F)c(F)c1 (stereo not drawn) [Example 24],–,–,phyto,–,–,phyto,phyto,–,phyto,–,–,[empty],phyto,phyto,–,–,–,[empty],–,–,–
CC(CNC(=O)c1cccc(C(F)(F)F)c1)NC(=O)c1ccccc1SCCCCl (stereo not drawn) [Example 119],–,phyto,[empty],phyto,phyto,[empty],[empty],phyto,[empty],–,phyto,[empty],[empty],[empty],[empty],phyto,phyto,[empty],1000 g/ha,phyto,Pre-emergence activity (GR80) on ABUTH (ABUTH [25]): phyto; Pre-emergence activity (GR80) on SORHA (SORHA [28]): phyto
